Results from BigSolDB 2.1.

COc1cnc(Cl)nc1Cl
Conditions	solubility (mole fraction)
in acetone, 297.35 K	0.348
in acetone, 299.36 K	0.368
in acetone, 301.17 K	0.386
in acetone, 303.13 K	0.403
in acetone, 304.54 K	0.42
in acetone, 306.18 K	0.436
in acetone, 307.53 K	0.45
in acetone, 308.97 K	0.466
in acetone, 310.25 K	0.481
in acetone, 311.37 K	0.492
in ethanol, 299.44 K	0.0474
in ethanol, 301.27 K	0.0527
in ethanol, 303.17 K	0.0584
in ethanol, 305.17 K	0.0655
in ethanol, 307.06 K	0.0745
in ethanol, 309.05 K	0.0855
in ethanol, 310.73 K	0.0972
in ethanol, 312.58 K	0.11
in ethanol, 314 K	0.125
in ethanol, 315.47 K	0.141
in ethanol, 316.61 K	0.158
in ethyl acetate, 295.6 K	0.288
in ethyl acetate, 296.53 K	0.295
in ethyl acetate, 298.25 K	0.311
in ethyl acetate, 300.66 K	0.33
in ethyl acetate, 302.28 K	0.347
in ethyl acetate, 304.15 K	0.364
in ethyl acetate, 305.62 K	0.382
in ethyl acetate, 307.47 K	0.401
in ethyl acetate, 309.19 K	0.422
in ethyl acetate, 311.16 K	0.444
in ethyl acetate, 313.07 K	0.468
in ethyl acetate, 314.57 K	0.49
in ethyl acetate, 316.39 K	0.513
in methanol, 302.37 K	0.0598
in methanol, 303.78 K	0.0659
in methanol, 305.44 K	0.0734
in methanol, 306.57 K	0.0803
in methanol, 308.12 K	0.0893
in methanol, 309.67 K	0.102
in methanol, 311.15 K	0.114
in methanol, 312.43 K	0.13
in methanol, 313.55 K	0.146
in methanol, 314.81 K	0.163
in methanol, 315.8 K	0.181
in methanol, 316.95 K	0.202
in n-heptane, 298.1 K	0.0094
in n-heptane, 299.83 K	0.0104
in n-heptane, 302.1 K	0.0116
in n-heptane, 303.81 K	0.0129
in n-heptane, 305.72 K	0.0141
in n-heptane, 307.55 K	0.0157
in n-heptane, 309.57 K	0.0174
in n-heptane, 310.97 K	0.0192
in n-heptane, 312.89 K	0.0214
in n-heptane, 315.04 K	0.0239
in n-heptane, 317.15 K	0.0268
in n-heptane, 318.83 K	0.0296
in n-heptane, 320.08 K	0.0324
in tetrachloromethane, 298.6 K	0.123
in tetrachloromethane, 299.42 K	0.13
in tetrachloromethane, 300.63 K	0.143
in tetrachloromethane, 301.97 K	0.159
in tetrachloromethane, 303.35 K	0.178
in tetrachloromethane, 304.82 K	0.196
in tetrachloromethane, 305.8 K	0.214
in tetrachloromethane, 306.87 K	0.237
in tetrachloromethane, 308.2 K	0.261
in tetrachloromethane, 309.57 K	0.288
in tetrachloromethane, 310.9 K	0.315
in tetrachloromethane, 312.15 K	0.343
